Where two headings read alike, the source gives them in different places.

Our source for the remaining activity values is paper PMC7827406, “Structure–Activity Relationship (SAR) Study of Spautin-1 to Entail the Discovery of Novel NEK4 Inhibitors” (International Journal of Molecular Sciences, 2021).

Holding throughout (assay): biochemical
Common to all, as to parameters: Eurofins KinaseProfiler full panel at Km ATP, residual kinase activity (%) relative to DMSO

In one test the target is T1, SNRK(h) (Homo sapiens, UniProt Q9NRH2).
T1 sequence (Q9NRH2 1-765): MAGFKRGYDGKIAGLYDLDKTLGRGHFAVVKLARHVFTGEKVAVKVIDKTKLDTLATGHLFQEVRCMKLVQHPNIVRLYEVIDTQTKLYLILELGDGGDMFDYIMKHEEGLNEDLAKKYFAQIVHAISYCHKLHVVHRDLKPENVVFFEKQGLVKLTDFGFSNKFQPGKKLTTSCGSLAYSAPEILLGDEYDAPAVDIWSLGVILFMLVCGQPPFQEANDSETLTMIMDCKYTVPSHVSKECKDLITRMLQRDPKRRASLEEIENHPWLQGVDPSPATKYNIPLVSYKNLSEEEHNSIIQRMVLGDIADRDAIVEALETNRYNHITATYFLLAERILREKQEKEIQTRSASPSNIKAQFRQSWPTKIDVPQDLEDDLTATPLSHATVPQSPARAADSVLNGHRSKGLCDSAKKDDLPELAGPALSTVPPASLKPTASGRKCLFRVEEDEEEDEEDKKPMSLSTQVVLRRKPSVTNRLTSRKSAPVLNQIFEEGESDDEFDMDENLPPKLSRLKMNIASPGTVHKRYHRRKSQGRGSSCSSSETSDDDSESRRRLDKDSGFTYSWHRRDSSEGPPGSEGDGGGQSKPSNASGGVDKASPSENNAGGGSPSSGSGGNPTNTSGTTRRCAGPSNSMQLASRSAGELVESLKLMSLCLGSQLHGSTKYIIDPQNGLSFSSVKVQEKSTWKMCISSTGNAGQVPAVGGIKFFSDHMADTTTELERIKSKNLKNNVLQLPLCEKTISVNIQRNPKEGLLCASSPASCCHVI
Put shortly:
(§1)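 Compounds screened at 10 µM in radiometric kinase activity assays at Km ATP, reported as remaining kinase activity (%). A KINOMEscan competition-binding screen at 10 µM measured DNA-tagged kinase retained on immobilized active-site ligand by qPCR.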

A further test has as its target TAF1L(h) (Homo sapiens, UniProt Q8IZX4). An outline of the steps: as §1
The next test deals with T2, PKCμ(h) (Homo sapiens, UniProt Q15139).
T2 construct: gene PRKD1
T2 sequence (Q15139 1-912): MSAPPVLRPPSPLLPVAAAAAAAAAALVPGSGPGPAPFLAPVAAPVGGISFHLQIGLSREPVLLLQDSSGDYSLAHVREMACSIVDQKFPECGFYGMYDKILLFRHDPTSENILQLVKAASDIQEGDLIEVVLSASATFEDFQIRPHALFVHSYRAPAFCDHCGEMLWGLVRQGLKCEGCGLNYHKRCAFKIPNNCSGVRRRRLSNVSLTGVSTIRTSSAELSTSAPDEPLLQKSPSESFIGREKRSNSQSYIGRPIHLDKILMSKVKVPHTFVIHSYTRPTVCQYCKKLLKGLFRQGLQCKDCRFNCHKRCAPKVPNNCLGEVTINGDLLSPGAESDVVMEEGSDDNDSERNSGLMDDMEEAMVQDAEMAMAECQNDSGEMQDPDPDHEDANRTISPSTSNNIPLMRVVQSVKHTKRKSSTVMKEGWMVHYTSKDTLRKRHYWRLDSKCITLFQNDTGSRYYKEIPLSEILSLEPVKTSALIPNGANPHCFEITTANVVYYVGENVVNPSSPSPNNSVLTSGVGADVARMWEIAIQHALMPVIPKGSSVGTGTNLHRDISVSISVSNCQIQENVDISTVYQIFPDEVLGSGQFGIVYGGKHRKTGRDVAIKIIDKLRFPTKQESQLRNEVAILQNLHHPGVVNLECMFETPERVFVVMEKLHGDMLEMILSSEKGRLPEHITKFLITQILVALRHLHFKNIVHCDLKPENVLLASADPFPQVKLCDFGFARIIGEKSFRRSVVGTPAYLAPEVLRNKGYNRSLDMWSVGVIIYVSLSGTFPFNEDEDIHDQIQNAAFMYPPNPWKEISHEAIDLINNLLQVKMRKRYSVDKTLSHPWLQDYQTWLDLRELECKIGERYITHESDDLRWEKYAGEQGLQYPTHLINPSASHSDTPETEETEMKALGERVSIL
Put shortly:
as §1

A further test has as its target SIK2(h) (Homo sapiens, UniProt Q9H0K1). Put shortly: as §1
The target in a further test is T3, Pim-1(h) (Homo sapiens, UniProt P11309).
T3 construct: gene PIM1
T3 sequence (P11309 whole entry): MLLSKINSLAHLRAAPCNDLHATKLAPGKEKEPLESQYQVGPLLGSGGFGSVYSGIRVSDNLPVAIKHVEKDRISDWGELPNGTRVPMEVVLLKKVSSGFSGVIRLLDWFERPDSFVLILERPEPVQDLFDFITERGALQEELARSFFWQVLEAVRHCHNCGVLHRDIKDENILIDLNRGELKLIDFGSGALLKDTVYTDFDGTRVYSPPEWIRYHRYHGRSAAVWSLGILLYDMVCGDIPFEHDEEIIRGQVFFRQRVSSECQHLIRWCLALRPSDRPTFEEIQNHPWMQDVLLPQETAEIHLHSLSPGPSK
An outline of the steps:
as §1

The next test concerns the target ErbB2(h) (Homo sapiens, UniProt P04626). Put shortly: as §1
The mark [1] stands for this setting: read-out: Residual activity (%) Spautin-1 5aa.
Where [2] appears, read: read-out: Residual activity (%) 5as.
[3] abbreviates: read-out: Residual activity (%) 5at.
[4] abbreviates: read-out: Residual activity (%) 5ay.

Chain of TAF1L(h) (Q8IZX4 whole entry): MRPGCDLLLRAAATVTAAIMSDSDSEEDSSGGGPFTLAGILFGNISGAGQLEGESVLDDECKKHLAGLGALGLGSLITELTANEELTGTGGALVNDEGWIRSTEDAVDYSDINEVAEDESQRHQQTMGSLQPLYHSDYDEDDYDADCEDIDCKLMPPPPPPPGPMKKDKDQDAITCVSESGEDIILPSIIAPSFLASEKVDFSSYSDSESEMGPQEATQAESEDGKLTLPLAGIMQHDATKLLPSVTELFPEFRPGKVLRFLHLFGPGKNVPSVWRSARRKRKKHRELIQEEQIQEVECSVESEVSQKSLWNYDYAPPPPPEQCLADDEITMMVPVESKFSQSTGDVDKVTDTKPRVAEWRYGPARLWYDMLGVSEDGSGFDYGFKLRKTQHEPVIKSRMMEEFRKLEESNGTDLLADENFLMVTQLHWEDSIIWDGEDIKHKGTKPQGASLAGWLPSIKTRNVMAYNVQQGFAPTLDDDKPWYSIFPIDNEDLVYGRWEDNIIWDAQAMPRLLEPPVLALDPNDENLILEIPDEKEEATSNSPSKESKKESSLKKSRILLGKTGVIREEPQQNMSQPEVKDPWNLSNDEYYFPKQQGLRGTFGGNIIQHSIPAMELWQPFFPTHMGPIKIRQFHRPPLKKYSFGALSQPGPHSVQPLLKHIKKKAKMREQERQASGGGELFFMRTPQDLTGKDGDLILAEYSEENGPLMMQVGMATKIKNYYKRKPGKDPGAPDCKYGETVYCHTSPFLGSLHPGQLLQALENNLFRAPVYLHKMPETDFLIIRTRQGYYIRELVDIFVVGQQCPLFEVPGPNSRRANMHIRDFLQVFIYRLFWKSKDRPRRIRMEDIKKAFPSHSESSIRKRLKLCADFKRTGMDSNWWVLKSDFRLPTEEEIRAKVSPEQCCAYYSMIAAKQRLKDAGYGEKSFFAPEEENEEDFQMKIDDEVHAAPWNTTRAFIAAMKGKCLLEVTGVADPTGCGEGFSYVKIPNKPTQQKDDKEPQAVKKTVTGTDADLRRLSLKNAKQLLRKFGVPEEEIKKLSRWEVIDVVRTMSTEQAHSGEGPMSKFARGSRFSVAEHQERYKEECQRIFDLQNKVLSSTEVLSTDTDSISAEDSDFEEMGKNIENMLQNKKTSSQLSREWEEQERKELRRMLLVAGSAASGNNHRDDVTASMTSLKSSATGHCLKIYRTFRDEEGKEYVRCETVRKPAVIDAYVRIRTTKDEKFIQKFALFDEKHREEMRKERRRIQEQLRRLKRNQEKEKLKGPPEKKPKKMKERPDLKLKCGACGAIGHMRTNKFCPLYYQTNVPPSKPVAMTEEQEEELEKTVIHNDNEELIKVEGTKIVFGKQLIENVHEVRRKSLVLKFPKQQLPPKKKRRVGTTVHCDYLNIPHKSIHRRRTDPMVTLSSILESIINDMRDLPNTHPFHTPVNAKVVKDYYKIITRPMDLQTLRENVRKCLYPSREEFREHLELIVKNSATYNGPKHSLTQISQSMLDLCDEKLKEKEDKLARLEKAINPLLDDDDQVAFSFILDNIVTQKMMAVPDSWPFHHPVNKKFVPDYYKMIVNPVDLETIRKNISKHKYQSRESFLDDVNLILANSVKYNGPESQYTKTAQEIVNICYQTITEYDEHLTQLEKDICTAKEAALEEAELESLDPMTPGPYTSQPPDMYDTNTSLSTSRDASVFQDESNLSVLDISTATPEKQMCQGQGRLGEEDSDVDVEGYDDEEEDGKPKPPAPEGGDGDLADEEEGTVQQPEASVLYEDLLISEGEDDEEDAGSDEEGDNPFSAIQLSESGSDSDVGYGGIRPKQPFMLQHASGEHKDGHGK
Chain of ErbB2(h) (P04626 whole entry): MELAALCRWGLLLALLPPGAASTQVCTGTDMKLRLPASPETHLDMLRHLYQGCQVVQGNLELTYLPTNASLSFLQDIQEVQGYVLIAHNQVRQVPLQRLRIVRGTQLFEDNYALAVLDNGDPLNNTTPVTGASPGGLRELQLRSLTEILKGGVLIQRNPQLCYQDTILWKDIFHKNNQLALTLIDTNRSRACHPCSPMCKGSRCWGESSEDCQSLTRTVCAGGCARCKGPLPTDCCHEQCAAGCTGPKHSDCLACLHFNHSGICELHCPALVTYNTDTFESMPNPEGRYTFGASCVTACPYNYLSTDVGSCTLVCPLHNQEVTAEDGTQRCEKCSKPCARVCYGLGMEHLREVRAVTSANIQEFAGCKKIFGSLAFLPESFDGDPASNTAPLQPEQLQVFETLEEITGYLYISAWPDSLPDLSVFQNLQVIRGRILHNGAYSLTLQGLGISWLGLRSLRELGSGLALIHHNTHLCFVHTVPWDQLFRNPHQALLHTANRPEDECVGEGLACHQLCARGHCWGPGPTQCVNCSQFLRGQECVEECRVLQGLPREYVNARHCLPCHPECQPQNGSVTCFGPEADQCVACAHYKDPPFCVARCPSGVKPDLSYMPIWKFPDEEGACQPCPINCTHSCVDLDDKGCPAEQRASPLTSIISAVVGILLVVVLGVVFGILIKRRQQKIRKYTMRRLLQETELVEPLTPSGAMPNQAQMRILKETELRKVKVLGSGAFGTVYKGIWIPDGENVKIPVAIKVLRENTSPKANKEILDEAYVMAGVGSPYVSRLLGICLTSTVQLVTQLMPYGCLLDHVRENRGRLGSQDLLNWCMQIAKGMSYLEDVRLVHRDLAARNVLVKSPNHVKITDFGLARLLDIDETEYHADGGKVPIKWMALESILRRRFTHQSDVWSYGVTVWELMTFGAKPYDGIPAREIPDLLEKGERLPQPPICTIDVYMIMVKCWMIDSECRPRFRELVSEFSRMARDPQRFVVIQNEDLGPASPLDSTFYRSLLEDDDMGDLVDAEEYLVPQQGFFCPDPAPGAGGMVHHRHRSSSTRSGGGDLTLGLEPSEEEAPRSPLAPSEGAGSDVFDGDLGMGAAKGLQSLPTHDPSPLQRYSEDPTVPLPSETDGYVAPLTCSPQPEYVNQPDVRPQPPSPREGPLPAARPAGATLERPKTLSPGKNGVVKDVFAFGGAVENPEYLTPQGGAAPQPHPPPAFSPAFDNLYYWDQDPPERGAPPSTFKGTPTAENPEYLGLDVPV
Chain of SIK2(h) (Q9H0K1 whole entry): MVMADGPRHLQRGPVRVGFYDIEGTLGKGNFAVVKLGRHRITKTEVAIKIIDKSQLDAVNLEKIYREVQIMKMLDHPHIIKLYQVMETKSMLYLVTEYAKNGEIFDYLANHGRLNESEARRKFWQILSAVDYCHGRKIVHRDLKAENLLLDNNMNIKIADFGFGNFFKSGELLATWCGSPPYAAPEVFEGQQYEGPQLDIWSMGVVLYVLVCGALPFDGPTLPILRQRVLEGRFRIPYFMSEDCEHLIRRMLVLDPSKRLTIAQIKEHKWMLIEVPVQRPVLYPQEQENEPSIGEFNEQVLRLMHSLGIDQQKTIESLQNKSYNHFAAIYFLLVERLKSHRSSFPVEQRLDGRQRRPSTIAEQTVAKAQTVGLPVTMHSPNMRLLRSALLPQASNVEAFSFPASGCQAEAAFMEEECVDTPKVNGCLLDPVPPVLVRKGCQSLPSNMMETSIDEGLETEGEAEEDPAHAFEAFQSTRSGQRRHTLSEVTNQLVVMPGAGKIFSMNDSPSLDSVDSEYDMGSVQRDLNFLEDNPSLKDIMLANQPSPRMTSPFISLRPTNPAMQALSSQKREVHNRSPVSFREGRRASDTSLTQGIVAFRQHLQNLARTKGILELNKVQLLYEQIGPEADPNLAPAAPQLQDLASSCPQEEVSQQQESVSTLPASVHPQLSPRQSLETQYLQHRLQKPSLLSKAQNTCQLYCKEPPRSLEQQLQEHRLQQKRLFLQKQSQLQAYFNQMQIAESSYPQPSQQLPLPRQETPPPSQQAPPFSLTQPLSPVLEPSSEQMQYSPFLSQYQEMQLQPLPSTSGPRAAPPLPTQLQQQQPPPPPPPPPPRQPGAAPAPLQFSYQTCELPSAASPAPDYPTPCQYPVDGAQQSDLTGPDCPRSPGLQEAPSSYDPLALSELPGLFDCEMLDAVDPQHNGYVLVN

Take `Fc1ccc(CNc2ncnc3ccc(F)cc23)cc1` [5aa, 6-Fluoro-N-(4-fluorobenzyl)-4-Quinazolinamine]: the remaining activity at 10 µM at SNRK(h) (setting [1]) worked out at 103%; on TAF1L(h) (setting [1]), 80%; at PKCμ(h) (setting [1]), 97%; at SIK2(h) (setting [1]), 91%; on Pim-1(h) (setting [1]) it was 66%; on ErbB2(h) (setting [1]) it was 74%.
For `Fc1ccc(CCNc2ncnc3ccc(F)cc23)cc1` [5as, 6-Fluoro-N-[2-(4-Fluorophenyl)Ethyl]-4-Quinazolinamine], the remaining activity at 10 µM on SNRK(h) (setting [2]) is 104%; on TAF1L(h) (setting [2]), 66%; on PKCμ(h) (setting [2]), 85%; on SIK2(h) (setting [2]), 97%; at Pim-1(h) (setting [2]) it was 73%; at ErbB2(h) (setting [2]), 79%.
As to `Fc1ccc2ncnc(NCCc3ccc(Cl)cc3)c2c1` [5at, N-[2-(4-Chlorophenyl)Ethyl]-6-Fluoro-4-Quinazolinamine], the remaining activity at 10 µM is 103% at SNRK(h) (setting [3]); 70% on TAF1L(h) (setting [3]); 80% at PKCμ(h) (setting [3]); 84% at SIK2(h) (setting [3]); 70% at Pim-1(h) (setting [3]); 65% on ErbB2(h) (setting [3]).
With `COc1ccc2ncnc(Nc3cccc(F)c3)c2c1` [5ay, N-(3-Fluorophenyl)-6-Methoxy-4-Quinazolinamine], the remaining activity at 10 µM on SNRK(h) (setting [4]) was 79%; on TAF1L(h) (setting [4]), 32%; on PKCμ(h) (setting [4]) it was 93%; at SIK2(h) (setting [4]) it was 65%; at Pim-1(h) (setting [4]) it was 39%; at ErbB2(h) (setting [4]), 20%.
